Laboratory results reported in US10738051B2, “β-lactamase inhibitors” (priority 2016, dated 2020).

How the values were obtained:
[1] = molecular target: OXA-2 (Class D) β-lactamase (Escherichia coli, UniProt P0A1V9); assay: In vitro enzymatic assay (Nitrocefin); type: biochemical
Protocol: (§1) 2) Prepare buffer solution A (1×PBS, pH 7.4, 0.1 mg/mL BSA) for enzymatic assay;
(§2) 3) The compound mother liquor was 4-fold serial diluted for 11 times with DMSO in a 96-well tip-bottom plate, which was used as a working solution. A 96-well flat bottom plate was used as a test plate, the corresponding reaction buffer was previously added to each well, followed by addition of a corresponding volume of the working solution (100 μM-0.095 nM and 0 nM). Wherein, EDTA-Na2 was used as a control for the NDM-1 test at a concentration of 20 mM;
(§3) 4) adding the corresponding β-lactamase, and the test plate was incubated at 37° C. for 5 minutes;
(§4) 5) Adding 5 μL Nitrocefin (the final reaction volume was 100 μL), the absorbance OD490 of the reaction solution in the plate was measured by a microplate reader and the result was recorded, the absorbance was measured every minute over 30 minutes;
(§5) 6) The microplate reader could give a curve of OD490 over time. The slope of the curve (Abs2−Abs1)/(T2−T1) was calculated by taking two data points Abs1 and Abs2 within the linear range of the curve.
(§6) 7) The relative inhibition rate was calculated as follows: Slope (EC) was calculated under the condition of absence of an inhibitor, and Slop(S) was calculated under the condition of an inhibitor at a certain concentration.
(§7) The relative inhibition rate and the corresponding concentration of the inhibitor were used to calculate the IC50 value of the inhibitor on β-lactamase. In this experiment, the IC50 was calculated using the formula of GraphPad Prism 5.0, log(inhibitor) vs. normalized response-Variable slope.

[2] = molecular target: CTX-M-44 (Class C) β-lactamase (Escherichia coli, UniProt Q47066); assay: In vitro enzymatic assay (Nitrocefin); type: biochemical
Protocol: as §1, §2, §3, §4, §5, §6, §7

[3] = molecular target: AmpC-EC (Class C) β-lactamase (UniProt P05364); assay: In vitro enzymatic assay (Nitrocefin); type: biochemical; settings: Nitrocefin 0.1 mM, 1 × PBS pH 7.4, 0.1 mg/mL BSA, read-out: IC50, inhibitory activity on β-lactamase
Protocol: as §1, §2, §3, §4, §5, §6, §7

[4] = molecular target: OXA-9 (Class D) β-lactamase (Klebsiella pneumoniae, UniProt P0A3M3); assay: In vitro enzymatic assay (Nitrocefin); type: biochemical
Protocol: as §1, §2, §3, §4, §5, §6, §7

[5] = test system: OXA-181 carbapenemase-producing strains (7 strains), clinically isolated Klebsiella pneumoniae; assay: SIC assay against Chinese clinical isolates (broth microdilution MIC); type: cell-based; settings: for MIC50 / MIC90: Klebsiella pneumoniae; for drug resistance rate / drug sensitive rate: OXA-181 carbapenemase-producing strains (7 strains), CLSI criteria of the antibiotic, inhibitor fixed at 4 μg/mL
Description: (§8) The broth microdilution method was used to determine the minimum inhibitory concentration (MIC) of antibacterial agents (with and without BLI lead compound) against clinical isolates of carbapenemase-producing strains.
(§9) 1. Drug susceptibility test: according to the method of antimicrobial susceptibility test described in the 2016 edition of the US Clinical and Laboratory Standards Institute (CLSI) document, the MIC of commonly used antibacterial drugs against clinically isolated bacteria was determined by a broth microdilution method.
2. […] All strains were clinically isolated Klebsiella pneumoniae.
(§10) 4. Quality control strains: quality control strains of the drug susceptibility test include Escherichia coli ATCC 25922 and ATCC 35218.

[6] = test system: K. pneumoniae ATCC-700603 (SHV-18); assay: In vitro synergistic inhibitory concentration (SIC) assay; type: cell-based; settings: Klebsiella pneumoniae, ATCC700603, 37° C. 20 hours, read-out: minimum inhibitory concentration, used alone
Protocol: (§11) 2) 30 μL dimethyl sulfoxide was added to columns 2-12 of the 96-V well plate. 60 μL prepared ceftazidime was added to column 1. 30 μL ceftazidime was transferred from column 1 to column 2 and mixed with a pipette. The same operation was continued until column 11, and 30 μL of the mixture in column 11 was discarded. This was the compound mother plate.
(§12) Mix the liquid in the mother plate with a pipette.
(§13) 4) One day before the experiment, the bacterial glycerol stock which was stored in a −80° C. refrigerator was streaked on a trypticase soy agar plate (TSA), and the plate was incubated in a 37° C. incubator overnight. On the day of the experiment, the monoclonal bacterial was suspended in physiological saline and the turbidity of which was adjusted to 0.5 McFarland standard, corresponding to 1×10^8 CFU/ml. This suspension was diluted 100-fold to 1×10^6 CFU/mL with caton-adjusted Mueller-Hnton broth (CAMHB), which was used as an inoculation fluid.
(§14) 5) a 96-U plate was used as a test plate. Firstly, adding 98 μL CAMHB to each well of the test plate and transferring 2 μL solution in the mother plate to the test plate. 100 μL inoculation fluid was added to each well of the test plate.
(§15) 6) The test plate was incubated at 37° C. for 20 hours.
(§16) The above-mentioned method was also used to determine the antibacterial activity of the test compound or the antibiotic when used alone.

[7] = test system: K. pneumoniae ATCC BAA-1705 (KPC); assay: as above; type: cell-based; settings: Klebsiella pneumoniae, ATCCBAA1705, 37° C. 20 hours, read-out: minimum inhibitory concentration, used alone
Protocol: as §11, §12, §13, §14, §15, §16

[8] = test system: K. pneumoniae ATCC 51504 (TEM-10); assay: as above; type: cell-based; settings: Klebsiella pneumoniae, ATCC51504, 37° C. 20 hours, read-out: minimum inhibitory concentration, used alone
Protocol: as §11, §12, §13, §14, §15, §16

[9] = test system: K. pneumoniae ATCC 51503 (TEM-10/12); assay: as above; type: cell-based; settings: Klebsiella pneumoniae, ATCC51503, 37° C. 20 hours, read-out: minimum inhibitory concentration, used alone
Protocol: as §11, §12, §13, §14, §15, §16

[10] = test system: K. pneumoniae ATCC BAA-1898 (KPC); assay: as above; type: cell-based; settings: Klebsiella pneumoniae, ATCCBAA1898, 37° C. 20 hours, read-out: minimum inhibitory concentration, used alone
Protocol: as §11, §12, §13, §14, §15, §16

[11] = test system: E. cloacae ATCC BAA-1143 (AmpC); assay: as above; type: cell-based; settings: Enterobacter cloacae, ATCCBAA1143, 37° C. 20 hours, read-out: minimum inhibitory concentration, used alone
Protocol: as §11, §12, §13, §14, §15, §16

[12] = test system: K. pneumoniae ATCC BAA-1899 (KPC); assay: as above; type: cell-based; settings: Klebsiella pneumoniae, ATCCBAA1899, 37° C. 20 hours, read-out: minimum inhibitory concentration, used alone
Protocol: as §11, §12, §13, §14, §15, §16

[13] = test system: K. pneumoniae ATCC BAA-1144 (AmpC); assay: as above; type: cell-based; settings: Klebsiella pneumoniae, ATCCBAA1144, 37° C. 20 hours, read-out: minimum inhibitory concentration, used alone
Protocol: as §11, §12, §13, §14, §15, §16

[14] = test system: K. pneumoniae ATCC BAA-205 (TEM-1/SHV-1/SHV-12); assay: as above; type: cell-based; settings: Klebsiella pneumoniae, ATCCBAA205, 37° C. 20 hours, read-out: minimum inhibitory concentration, used alone
Protocol: as §11, §12, §13, §14, §15, §16

[15] = test system: KPC-2 carbapenemase-producing strains (8 strains), clinically isolated Klebsiella pneumoniae; assay: SIC assay against Chinese clinical isolates (broth microdilution MIC); type: cell-based; settings: for drug resistance rate / drug sensitive rate: KPC-2 carbapenemase-producing strains (8 strains), CLSI criteria of the antibiotic, inhibitor fixed at 4 μg/mL
Description: as §8, §9
(§17) 2. Strains: 8 KPC-2 carbapenemase-producing strains, 8 NDM-1 metalloenzyme-producing strains, and 6 OXA-181 carbapenemase-producing strains. All strains were clinically isolated Klebsiella pneumoniae.
as §10

[16] = test system: NDM-1 metalloenzyme-producing strains (8 strains), clinically isolated Klebsiella pneumoniae; assay: as above; type: cell-based; settings: for MIC50 / MIC90: Klebsiella pneumoniae; for MIC50 / MIC90 / MIC range: NDM-1 metalloenzyme-producing K. pneumoniae clinical isolates (8 strains), enzyme inhibitor in combinations fixed at 4 μg/mL; for drug resistance rate / drug sensitive rate: NDM-1 metalloenzyme-producing strains (8 strains), CLSI criteria of the antibiotic, inhibitor fixed at 4 μg/mL
Description: as §8, §9, §17, §10

[17] = test system: K. pneumoniae ATCC BAA-2470 (NDM-1); assay: In vitro synergistic inhibitory concentration (SIC) assay; type: cell-based; settings: Klebsiella pneumoniae, ATCCBAA2470, 37° C. 20 hours, read-out: minimum inhibitory concentration, used alone
Protocol: as §11, §12, §13, §14, §15, §16

[18] = test system: E. coli ATCC BAA-2523 (OXA-48); assay: as above; type: cell-based; settings: Escherichia coli, ATCCBAA2523, 37° C. 20 hours, read-out: minimum inhibitory concentration, used alone
Protocol: as §11, §12, §13, §14, §15, §16

[19] = test system: K. pneumoniae ATCC BAA-2524 (OXA-48); assay: as above; type: cell-based; settings: Klebsiella pneumoniae, ATCCBAA2524, 37° C. 20 hours, read-out: minimum inhibitory concentration, used alone
Protocol: as §11, §12, §13, §14, §15, §16

[20] = test system: K. pneumoniae ATCC BAA-2472 (NDM-1); assay: as above; type: cell-based; settings: Klebsiella pneumoniae, ATCCBAA2472, 37° C. 20 hours, read-out: minimum inhibitory concentration, used alone
Protocol: as §11, §12, §13, §14, §15, §16

[21] = OXA-181 carbapenemase-producing K. pneumoniae clinical isolates (7 strains), enzyme inhibitor in combinations fixed at 4 μg/mL
[22] = Klebsiella pneumoniae, KPC-2 carbapenemase-producing K. pneumoniae clinical isolates (8 strains), enzyme inhibitor in combinations fixed at 4 μg/mL

| SMILES | MIC50 [5, 21] | MIC90 [5, 21] | MIC [6] | MIC [7] | MIC [8] | MIC [9] | MIC [10] | MIC [11] | MIC [12] | MIC [13] | MIC [14] | MIC50 [15, 22] | MIC50 [16] | MIC90 [16] | MIC range [16] | drug resistance rate [5] | drug sensitive rate [5] | drug resistance rate [15] | drug sensitive rate [15] | drug resistance rate [16] | other results |
| --- | --- | --- | --- | --- | --- | --- | --- | --- | --- | --- | --- | --- | --- | --- | --- | --- | --- | --- | --- | --- | --- |
| NC(=O)[C@@H]1CC[C@@H]2CN1C(=O)N2OS(=O)(=O)O [Avibactam, avibactam] | – | – | – | – | – | – | – | – | – | – | – | – | – | – | – | – | – | – | – | – | IC50 [1]: 1490 nM; IC50 [2]: 67 nM; IC50 [3]: 107 nM; IC50 [4]: 3130 nM |
| C[C@@H](O)[C@H]1C(=O)N2C(C(=O)O)=C(S[C@@H]3CN[C@H](C(=O)Nc4cccc(C(=O)O)c4)C3)[C@H](C)[C@H]12 [Ertapenem, ertapenem] | – | – | – | – | – | – | – | – | – | – | – | – | – | – | – | – | – | – | – | – | MIC [17]: > 128 µg/mL; MIC [18]: 8 µg/mL; MIC [19]: 4 µg/mL; MIC [20]: > 128 µg/mL |
| NCCONC(=O)[C@@H]1CC[C@@H]2CN1C(=O)N2OS(=O)(=O)O [OP-0595] | – | – | > 128 µg/mL | > 128 µg/mL | > 128 µg/mL | > 128 µg/mL | > 128 µg/mL | 4 µg/mL | > 128 µg/mL | > 128 µg/mL | > 128 µg/mL | – | – | – | – | – | – | – | – | – | MIC [17]: > 128 µg/mL; MIC [18]: 16 µg/mL; MIC [19]: > 128 µg/mL; MIC [20]: > 128 µg/mL |

More lines, main results first:

| MIC50 [5, 21] | MIC90 [5, 21] | MIC [6] | MIC [7] | MIC [8] | MIC [9] | MIC [10] | MIC [11] | MIC [12] | MIC [13] | MIC [14] | MIC50 [15, 22] | MIC50 [16] | MIC90 [16] | MIC range [16] | SMILES | drug resistance rate [5] | drug sensitive rate [5] | drug resistance rate [15] | drug sensitive rate [15] | drug resistance rate [16] | other results |
| --- | --- | --- | --- | --- | --- | --- | --- | --- | --- | --- | --- | --- | --- | --- | --- | --- | --- | --- | --- | --- | --- |
| > 128 µg/mL | > 128 µg/mL | 64 µg/mL | > 128 µg/mL | > 128 µg/mL | > 128 µg/mL | > 128 µg/mL | > 128 µg/mL | > 128 µg/mL | > 128 µg/mL | 32 µg/mL | > 128 µg/mL | > 128 µg/mL | > 128 µg/mL | >128 µg/mL | CC(C)(O/N=C(\C(=O)N[C@@H]1C(=O)N2C(C(=O)[O-])=C(C[n+]3ccccc3)CS[C@H]12)c1csc(N)n1)C(=O)O [Ceftazidime, ceftazidime] | 100 | 0 | 100 | 0 | 100 | MIC range ([15]; KPC-2 carbapenemase-producing K. pneumoniae clinical isolates (8 strains), enzyme inhibitor in combinations fixed at 4 μg/mL): 64 to 128 µg/mL; MIC90 [15, 22]: > 128 µg/mL; drug sensitive rate [16]: 0 |
| – | – | – | – | – | – | – | – | – | – | – | – | 64 µg/mL | – | – | C[C@H]1[C@H](NC(=O)/C(=N\OC(C)(C)C(=O)O)c2csc(N)n2)C(=O)N1S(=O)(=O)O [aztreonam] | – | – | – | – | – | – |
| 0.5 µg/mL | 2 µg/mL | – | – | – | – | – | – | – | – | – | 64 µg/mL | 4 µg/mL | 32 µg/mL | 2 to 32 µg/mL | C[C@@H](O)[C@H]1C(=O)N2C(C(=O)O)=C(S[C@@H]3CN[C@H](C(=O)N(C)C)C3)[C@H](C)[C@H]12 [meropenem] | 0 | 85.7 | 100 | 0 | 75 | MIC range [5, 21]: 0.5 to 2 µg/mL; drug sensitive rate [16]: 0 |
